Assay results as given in PubChem BioAssay (NCI).
Where “and” joins values, the source holds several entries; their conditions need not be identical. Equal entries are not always repeated.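 Interpolation was linear, between the two tested concentrations surrounding the appropriate level; five concentrations were tested over 48 hours in 96-well plates. Here, GI50 denotes the concentration required for 50% inhibition of growth. TGI is the concentration that stops growth completely.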

How the values were obtained:
Assay in all cases: DTP human tumour cell line panel, 48 h
A498 renal = system: A498 renal
HOP-92 NSCLC = system: HOP-92 NSCLC
DU-145 prostate = system: DU-145 prostate
SK-OV-3 ovarian = system: SK-OV-3 ovarian
NCI-H522 lung = system: NCI-H522 lung
MDA-MB-231 breast = system: MDA-MB-231 breast
RXF 393 renal = system: RXF 393 renal
SF-539 CNS = system: SF-539 CNS
U251 CNS = system: U251 CNS
BT-549 breast = system: BT-549 breast

`O=[N+]([O-])c1ccc(Sc2cccc[n+]2[O-])c2nonc12` gave a GI50 (A498 renal) of 4.88 µM, a TGI (A498 renal) of 91.9 µM and a GI50 (HOP-92 NSCLC) of 5.45 µM. It also gave a TGI (HOP-92 NSCLC) of 23.7 µM, a GI50 (DU-145 prostate) of 3.55 µM and a TGI (DU-145 prostate) of 13.1 µM. The GI50 (SK-OV-3 ovarian) was 30 µM, the TGI (SK-OV-3 ovarian) was greater than 100 µM and the GI50 (NCI-H522 lung) was 1.78 µM. The TGI (NCI-H522 lung) was 3.79 µM, the GI50 (MDA-MB-231 breast) was 4.7 µM and the TGI (MDA-MB-231 breast) was 16 µM. It also gave a GI50 (RXF 393 renal) of 2.12 µM, a TGI (RXF 393 renal) of 6.32 µM and a GI50 (SF-539 CNS) of 19.3 µM. The TGI (SF-539 CNS) was 54.3 µM, the GI50 (U251 CNS) was 3.56 µM and the TGI (U251 CNS) was 17.6 µM. The GI50 (BT-549 breast) was 12.7 µM and the TGI (BT-549 breast) was 25.8 µM.
`O=C(c1ccc(Cl)cc1Cl)N1CCN(C(=O)c2ccc(Cl)cc2Cl)C1=S` showed a GI50 (A498 renal) of 16.1 µM, a TGI (A498 renal) of 36.5 µM and a GI50 (HOP-92 NSCLC) of 7.83 µM. The TGI (HOP-92 NSCLC) was 28.5 µM, the GI50 (DU-145 prostate) was 30.6 µM and the TGI (DU-145 prostate) was 98.9 µM. It also gave a GI50 (SK-OV-3 ovarian) of 22.8 µM, a TGI (SK-OV-3 ovarian) of 55.4 µM and a GI50 (NCI-H522 lung) of 18.2 µM. It also gave a TGI (NCI-H522 lung) of 38.1 µM, a GI50 (MDA-MB-231 breast) of 19.1 µM and a TGI (MDA-MB-231 breast) of 38.7 µM. For the same molecule, the GI50 (RXF 393 renal) was 18.5 µM, the TGI (RXF 393 renal) was 43 µM and the GI50 (SF-539 CNS) was 27.2 µM. The TGI (SF-539 CNS) was 49.6 µM, the GI50 (U251 CNS) was 17.8 µM and the TGI (U251 CNS) was 35.3 µM. The GI50 (BT-549 breast) was 21.1 µM and the TGI (BT-549 breast) was 54.2 µM.
Work on `Nc1nc(N)nc(CCCCc2nc(N)nc(N)n2)n1` yielded a TGI (A498 renal) greater than 100 µM, a TGI (HOP-92 NSCLC) greater than 100 µM and a TGI (DU-145 prostate) greater than 100 µM. For the same molecule, the TGI (SK-OV-3 ovarian) was greater than 100 µM, the TGI (NCI-H522 lung) was greater than 100 µM and the TGI (MDA-MB-231 breast) was greater than 100 µM. For the same molecule, the TGI (RXF 393 renal) was greater than 100 µM, the TGI (SF-539 CNS) was greater than 100 µM and the TGI (U251 CNS) was greater than 100 µM. The TGI (BT-549 breast) was greater than 100 µM.
For `O=C1c2ccccc2C(=O)N1c1ccc(Cc2ccc(N3C(=O)c4ccccc4C3=O)cc2)cc1`, the TGI (A498 renal) was greater than 100 µM, the TGI (HOP-92 NSCLC) was greater than 100 µM and the TGI (DU-145 prostate) was greater than 100 µM. For the same molecule, the TGI (SK-OV-3 ovarian) was greater than 100 µM, the TGI (NCI-H522 lung) was greater than 100 µM and the TGI (MDA-MB-231 breast) was greater than 100 µM. The TGI (RXF 393 renal) was greater than 100 µM, the TGI (SF-539 CNS) was greater than 100 µM and the TGI (U251 CNS) was greater than 100 µM. It also gave a TGI (BT-549 breast) greater than 100 µM.
With `CCc1nc(N)nc(N)c1C#CC(C)c1ccc(-c2ccncc2)cc1Cl` (centres undefined) the GI50 (A498 renal) was 0.109 µM and 0.223 µM, the TGI (A498 renal) was 1.64 µM and 5.81 µM and the GI50 (HOP-92 NSCLC) was 0.109 µM and 0.547 µM. For the same molecule, the TGI (HOP-92 NSCLC) was 1.56 µM and 6.36 µM, the GI50 (DU-145 prostate) was 0.0242 µM and 0.0658 µM and the TGI (DU-145 prostate) was 5.01 µM and 13.7 µM. The GI50 (SK-OV-3 ovarian) was 0.0977 µM and 0.0932 µM, the TGI (SK-OV-3 ovarian) was 2.63 µM and 14.6 µM and the GI50 (NCI-H522 lung) was 0.0477 µM and 0.0346 µM. The TGI (NCI-H522 lung) was 2.97 µM and 4.06 µM, the GI50 (MDA-MB-231 breast) was 0.555 µM and 0.511 µM and the TGI (MDA-MB-231 breast) was 7.11 µM and 19.8 µM. For the same molecule, the GI50 (RXF 393 renal) was 0.141 µM and 0.312 µM, the TGI (RXF 393 renal) was 2.12 µM and 7.44 µM and the GI50 (SF-539 CNS) was 0.0159 µM and 0.0423 µM. For the same molecule, the TGI (SF-539 CNS) was 1.56 µM and 10.4 µM, the GI50 (U251 CNS) was 0.0108 µM and 0.028 µM and the TGI (U251 CNS) was 5.1 µM and 11.6 µM. The TGI (BT-549 breast) was 2.8 µM and 12.1 µM.
For `O=C(CSSCC(=O)c1ccc(Cl)cc1)c1ccc(Cl)cc1`, the GI50 (A498 renal) was 9.77 µM, the TGI (A498 renal) was 23 µM and the GI50 (HOP-92 NSCLC) was 5.37 µM. The TGI (HOP-92 NSCLC) was 19.4 µM, the GI50 (DU-145 prostate) was 4.77 µM and the TGI (DU-145 prostate) was 91.3 µM. It also gave a GI50 (SK-OV-3 ovarian) of 4.34 µM, a TGI (SK-OV-3 ovarian) of 22.4 µM and a GI50 (NCI-H522 lung) of 3.56 µM. It also gave a TGI (NCI-H522 lung) of 15.3 µM, a GI50 (MDA-MB-231 breast) of 4.93 µM and a TGI (MDA-MB-231 breast) of 24.2 µM. For the same molecule, the GI50 (RXF 393 renal) was 4.49 µM, the TGI (RXF 393 renal) was 14.7 µM and the GI50 (SF-539 CNS) was 7.36 µM. For the same molecule, the TGI (SF-539 CNS) was 23.8 µM, the GI50 (U251 CNS) was 4.16 µM and the TGI (U251 CNS) was 17.5 µM. It also gave a GI50 (BT-549 breast) of 8.92 µM and a TGI (BT-549 breast) of 39.9 µM.
For `Nc1c(C(=O)c2cccc(-c3cccnc3)c2)cnn1-c1ccc(F)cc1`, the GI50 (A498 renal) was greater than 25 µM, the TGI (A498 renal) was greater than 25 µM and the GI50 (HOP-92 NSCLC) was greater than 8.11 µM. It also gave a TGI (HOP-92 NSCLC) greater than 25 µM, a GI50 (DU-145 prostate) greater than 25 µM and a TGI (DU-145 prostate) greater than 25 µM. The GI50 (SK-OV-3 ovarian) was greater than 25 µM, the TGI (SK-OV-3 ovarian) was greater than 25 µM and the GI50 (NCI-H522 lung) was 6.12 µM. It also gave a TGI (NCI-H522 lung) of 24.7 µM, a GI50 (MDA-MB-231 breast) greater than 25 µM and a TGI (MDA-MB-231 breast) greater than 25 µM. It also gave a GI50 (RXF 393 renal) greater than 18.3 µM, a TGI (RXF 393 renal) greater than 25 µM and a GI50 (SF-539 CNS) greater than 25 µM. It also gave a TGI (SF-539 CNS) greater than 25 µM, a GI50 (U251 CNS) greater than 25 µM and a TGI (U251 CNS) greater than 25 µM. It also gave a GI50 (BT-549 breast) greater than 13.2 µM and a TGI (BT-549 breast) greater than 25 µM.
